Values quoted from earlier work in patent US6444224B1 (Interag, priority 1997, dated 2002).

Columns and labels:
pigs [1] = details: oral, once daily at feeding
pigs [2] = details: 15, 25, 50 mg per day (IM) for 14 days

SMILES	Effectiveness to control oestrus and ovulation (pigs [1])	Control of the oestrus cycle (pigs [2])	Fertility (pigs [2])
C=CC[C@]1(O)CC[C@H]2[C@@H]3CCC4=CC(=O)CCC4=C3C=C[C@@]21C [altrenogest]	effective		
CC(=O)[C@H]1CC[C@H]2[C@@H]3CCC4=CC(=O)CC[C@]4(C)[C@H]3CC[C@]12C [progesterone]		results in control of the oestrus cycle	poor fertility results
C=CC(C)NC(=S)NNC(=S)NC (stereo not shown) [methallibure]	effective		
